Assay results reported in ChEMBL document CHEMBL3046689, “Volatile aldehydes are promising broad-spectrum postharvest insecticides” (J Agric Food Chem, 2000).
Converted amounts (≈) assume the structure as drawn. The source made the active and inactive calls. The calls are words filed in the database; no cut-off is given here.

Tests used:
Myzus persicae [1] = test: Insecticidal activity against Myzus persicae (green peach aphid) applied through two-tier reduced pressure fumigation at 30 mmHg for 0.5 hr and then 760 mmHg for 1.5 hr at 23 +/- 1 degC; format: functional
[2] = system: Frankliniella occidentalis; test: Insecticidal activity against Frankliniella occidentalis (western flower thrips); format: functional, organism-based
Tetranychus urticae = test: Insecticidal activity against Tetranychus urticae (two-spotted spider mite); format: functional, organism-based
Pseudococcus viburni = test: Insecticidal activity against Pseudococcus viburni; format: functional, organism-based
Brevicoryne brassicae = test: Insecticidal activity against Brevicoryne brassicae (cabbage aphids); format: functional, organism-based
Myzus persicae [3] = test: Insecticidal activity against Myzus persicae (green peach aphid) placed under third leaf of naked Iceburg lettuce heads and after compound application for 2 hr through two-tier reduced pressure fumigation at 30 mmHg for 0.5 hr and then 760 mmHg for 1.5 hr at 23 +/- 1 degC measured after 24 hr; format: functional
Myzus persicae [4] = test: Insecticidal activity against Myzus persicae (green peach aphid) applied through two-tier reduced pressure fumigation at 30 mmHg for 0.5 hr and then 760 mmHg for 1.5 hr at 15 degC; format: functional; details: read-out: LD50 (the source's name)
Lactuca sativa [5] = test: Phytotoxicity in naked Lactuca sativa (lettuce) assessed as change in visual quality after compound application through two-tier reduced pressure fumigation at 30 mmHg for 0.5 hr and then 760 mmHg for 1.5 hr at 23 +/- 1 degC after 2 hr; format: organism-based; details: in vivo
Myzus persicae [6] = test: Insecticidal activity against Myzus persicae (green peach aphid) applied through atmospheric pressure fumigation at 760 mmHg for 2 hr at 23 +/- 1 degC; format: functional; details: read-out: LD50 (the source's name)
Bemisia = test: Insecticidal activity against Bemisia sp.; format: functional, organism-based
Pseudococcus affinis = test: Insecticidal activity against Pseudococcus affinis; format: functional, organism-based
Lactuca sativa [7] = test: Phytotoxicity in naked Lactuca sativa (lettuce) assessed as residual aldehyde odor after compound application through two-tier reduced pressure fumigation at 30 mmHg for 0.5 hr and then 760 mmHg for 1.5 hr at 23 +/- 1 degC after 2 hr; format: organism-based; details: in vivo
Myzus persicae [8] = test: Potentiation factor, ratio of LD50 for Myzus persicae (green peach aphid) applied through atmospheric pressure fumigation at 760 mmHg for 2 hr at 23 +/- 1 degC to LD50 for Myzus persicae (green peach aphid) applied through two-tier reduced pressure fumigation at 30 mmHg for 0.5 hr and then 760 mmHg for 1.5 hr at 23 +/- 1 degC; format: functional
[9] = Myzus persicae, read-out: LD50 (the source's name)

## CCCC=O [BUTANAL]
Myzus persicae [1]
  CTP: 21.6 mg/L.hr
Myzus persicae [1]; [9]
  LC50: 10.8 µg/mL (≈ 150 µM)
[2]
  Activity: Active
Tetranychus urticae
  Activity: inactive
Pseudococcus viburni
  Activity: Active
Brevicoryne brassicae
  Activity: inactive
Myzus persicae [3]
  LD90: 177.5 mg/L
Myzus persicae [3]; [9]
  LC50: 130 µg/mL (≈ 1800 µM)
Myzus persicae [4]
  LC50: 31 µg/mL (≈ 430 µM)
Lactuca sativa [5]
  Activity: Toxic
Myzus persicae [6]
  LC50: 26.1 µg/mL (≈ 362 µM)
Bemisia
  Activity: Active
Pseudococcus affinis
  Activity: Active
Lactuca sativa [7]
  Activity: Toxic
Myzus persicae [8]
  Ratio: 2.4
